The results in this text go back to ChEMBL document CHEMBL1201862, “PubChem BioAssay data set” (2004).

Test in all cases: NCI anticancer screen, dose series, 48 h
The test system of test [1] is DMS-273.
The test system of test [2] is XF498.
In test [3] the test system is DMS-114.
Test [4] has as its system M19-MEL.
Test [5] deals with SNB-78.
The subject of test [6] is KM-20L2.
The subject of test [7] is HOP-18.
In test [8] the test system is RXF 631.
Test [9] deals with DLD-1.

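Compound exposure: 48 hours, 5 concentrations, 96-well plates. At the GI50, growth is halved.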 Calls of active or inactive are those of the source. No stated cut-off is given here; in the data, active = GI50 up to about 1.1 µM and inactive = higher.

On to `O=C(c1ccccc1)c1c(-c2ccccc2)sc2nc3ccccc3nc12`, for which the GI50 is > 100 µM (inactive) in test [1]; > 100 µM (inactive) in test [2]; > 100 µM (inactive) in test [3]; > 100 µM (inactive) in test [4]; 74 µM (inactive) in [5]; > 100 µM (inactive) in test [6].
`Cc1ccc(S(=O)(=O)SC(C)(C)C)cc1`: the GI50 in test [7] is > 100 µM (inactive); in test [1], 19.8 µM (inactive); in [2], 15.6 µM (inactive); in [3] it was 16.9 µM (inactive); in test [4] it was 33.8 µM (inactive); in test [8], > 100 µM (inactive). Moreover, the GI50 in test [5] was 51.2 µM (inactive); in test [9] it was 18.5 µM (inactive).
As to `Cc1cc(=O)cc2sc3cc(Cl)ccc3nc1-2`, the GI50 is 48.1 µM (inactive) in test [7]; 6.17 µM (inactive) in [1]; 4.28 µM (inactive) in test [2]; 16.3 µM (inactive) in test [4]; 17 µM (inactive) in [5]; 17.4 µM (inactive) in [6]. Moreover, in test [9], the GI50 is 6.49 µM (inactive).
For the molecule `COc1ccccc1/C=C(\C#N)c1ccccc1`, the GI50 in [7] was 38.5 µM (inactive); in test [1], 16.8 µM (inactive); in test [3], 16.5 µM (inactive); in test [4], 32.6 µM (inactive); in [5] it was 31.2 µM (inactive); in test [6] it was 23.6 µM (inactive). In addition, the GI50 in test [9] was 28.1 µM (inactive).
As for `Cc1cc([N+](=O)[O-])ccc1Nc1cccc(Cl)c1C`, the GI50 in [7] was 14 µM (inactive); in [1], 14.6 µM (inactive); in [3] it was 13.5 µM (inactive); in [4] it was 16.5 µM (inactive); in [8] it was 16.2 µM (inactive); in test [6] it was 14 µM (inactive). Also, the GI50 in test [9] was 14.6 µM (inactive).
With `O=C1c2ccccc2-c2cccc3ccc(Cc4ccccc4)c1c23`, the GI50 in test [1], in test [2], in [3], in test [4], in [8] and in test [5] was > 100 µM (inactive) in each case. Besides, the GI50 in test [6] and in [9] was > 100 µM (inactive) each time.
For the molecule `CN(C)CCCNc1ccnc2c([N+](=O)[O-])cccc12`, the GI50 in test [1] is 14.7 µM (inactive); in test [2] it was 14.8 µM (inactive); in [3], 2.48 µM (inactive); in test [4], 2.44 µM (inactive); in test [5], 31.2 µM (inactive); in test [6], 4.36 µM (inactive).
For `O=c1cc2ccccc2nn1-c1ccccc1Cl`, the GI50 in test [7] was > 100 µM (inactive); in [1], 78.5 µM (inactive); in [2], 27 µM (inactive); in [3], 48.3 µM (inactive); in test [4] it was > 100 µM (inactive); in test [5], > 100 µM (inactive). Further, the GI50 in test [6] and in test [9] was > 100 µM (inactive) each time.
As for `CN(C)CCCCC1CCN(CC(=O)N2c3ccccc3NC(=O)c3ccccc32)CC1`, the GI50 in test [1], in test [2], in [3], in [4], in test [8] and in [5] was > 100 µM (inactive) each time. In addition, the GI50 in test [9] is > 100 µM (inactive).
Regarding `ClCCCCOC1CCCCO1` (stereo unspecified), the GI50 in test [7], in test [1], in test [2], in [3], in test [4] and in [5] was > 100 µM (inactive) throughout. Further, the GI50 in test [6] and in [9] was > 100 µM (inactive) in each case.
Consider `CCCN1C(=O)C/C(=C\C(C)=O)Nc2ccccc21`, for which the GI50 in [1] is > 100 µM (inactive); in test [2], > 100 µM (inactive); in test [3], 71.4 µM (inactive); in test [4], > 100 µM (inactive); in test [5], 80.2 µM (inactive); in test [9], > 100 µM (inactive).
Regarding `O=C(CC1(O)C(=O)Nc2c(Cl)cc(Cl)cc21)c1ccc([N+](=O)[O-])cc1` (stereo unspecified), the GI50 was > 100 µM (inactive) in test [7]; > 62.4 µM (inactive) in test [1]; 56.5 µM (inactive) in test [2]; 23.8 µM (inactive) in [3]; 10.3 µM (inactive) in test [4]; > 47.8 µM (inactive) in test [5]. In addition, the values for the GI50 in [6] and in test [9] were > 78 µM (inactive) and > 43.4 µM (inactive), respectively.
Consider `N#C/N=C1\NCCC(=O)N1CCc1c[nH]c2ccccc12`, for which the GI50 in test [1], in [2], in [3], in [4], in test [5] and in test [9] was > 100 µM (inactive) in each case.
For the molecule `C[n+]1c2ccccc2c(/C=N\NS(=O)(=O)c2ccc(O)c(C(=O)O)c2)c2ccccc21`, the GI50 in [1] was 35.6 µM (inactive); in test [2], 14.9 µM (inactive); in [3], 34 µM (inactive); in test [4] it was 99.8 µM (inactive); in [8], 31.6 µM (inactive); in test [5] it was > 100 µM (inactive). In addition, the results for the GI50 in [6] and in test [9] were 53.6 µM (inactive) and 58.7 µM (inactive), respectively.
`O=C1/C(=N\O)S(=O)(=O)c2ccccc21`: the GI50 in test [7], in [1], in test [3], in test [4], in [8] and in test [5] was > 100 µM (inactive) each time. For the same molecule, the GI50 is 59.2 µM (inactive) in test [6] and > 100 µM (inactive) in test [9].
As to `O=C1C2Cc3ccccc3CN2C(=O)N1CCN1CCOCC1` (stereo unspecified), the GI50 in test [1], in [3], in test [4], in test [8], in test [6] and in [9] was > 100 µM (inactive) in each case.
In the case of `CC(C)n1c2c([n+](C)c1/C=C/c1ccccc1)C(=O)c1ccccc1C2=O`, the GI50 in [1] was 0.0348 µM (active); in test [3] it was < 0.0148 µM (active); in test [4], 0.125 µM (active); in [5] it was 0.0389 µM (active); in test [6], 0.0955 µM (active); in test [9], 0.426 µM (active).
For `O=S(=O)(c1ccccc1)n1cnc(CCc2ccccc2)n1`, the GI50 in test [7], in test [1], in [3], in [4], in test [5] and in [6] was > 100 µM (inactive) in each case. The GI50 in [9] was > 100 µM (inactive).
On to `O=C(c1ccccc1)c1oc2ccc(Br)cc2c1-c1cnn(-c2ccccc2)c1`, for which the GI50 in test [1], in [2], in [3], in test [4], in test [5] and in test [6] was > 100 µM (inactive) each time. Further, in [9], the GI50 was > 100 µM (inactive).
On to `COc1ccc2c(c1)OCCCN(C)OC2c1ccccc1` (stereo unspecified), for which the GI50 in test [1], in [3], in test [4], in [5] and in [6] was > 100 µM (inactive) throughout.
As to `N=C(N)NS(=O)(=O)c1ccc(Nc2c3ccccc3nc3c(C(=O)Nc4ccc(S(N)(=O)=O)cc4)cccc23)cc1`, the GI50 in test [7] is > 100 µM (inactive); in test [1], > 100 µM (inactive); in test [2] it was 25.3 µM (inactive); in test [3] it was 45 µM (inactive); in [4], > 100 µM (inactive); in test [5], 76.4 µM (inactive). Besides, the GI50 in test [6] and in test [9] was > 100 µM (inactive) in each case.
Take `CC1=Nc2c(O)nc(S)nc2NC(c2c(Cl)cccc2Cl)C1` (stereo unspecified): the GI50 in test [7] was 15.2 µM (inactive); in [1] it was 1.95 µM (inactive); in [2], 3.1 µM (inactive); in [3], 3.05 µM (inactive); in test [4], 1.48 µM (inactive); in test [8], 5.75 µM (inactive). Moreover, the GI50 in [5] is 4.43 µM (inactive); in [6], 4.23 µM (inactive); in test [9], 2.42 µM (inactive).
